Data published in patent publication US10954214B2 (Janssen Pharmaceutica NV, priority 2016, dated 2021).

Assays:
[1] = molecular target: full-length MALT1 protein (Strep-MALT1(1-824)-His) (Homo sapiens (Human), UniProt Q9UDY8); experiment: MALT1 Biochemical Protease Assay (Ac-LRSR-AMC substrate); conditions: 10 nM FL MALT1, 200 μM Ac-LRSR-AMC, 4 h at RT; read-out: MALT1_Biochemical activity (Ac-LRSR-amc) IC50
Procedure, shortened: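 Full-length MALT1 pre-incubated with compounds (30 μM to 0.5 nM, 11 threefold steps) for 50 min at RT. After Ac-LRSR-AMC was added, the reaction ran 4 h at RT and AMC fluorescence was read. IC50 and Hill slope from curve fitting against no-enzyme and no-compound controls.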

[2] = system: IL6 secretion by OCI-LY3 ABC-DLBCL cells; experiment: Human IL6 Mesoscale assay (OCI-LY3); assay type: cell-based; conditions: 24 h
Description: (§1) NFKB signaling regulates the secretion of multiple cytokines, including IL6 and IL10. Secretion of the cytokines IL6 and IL10 by TMD8 or OCI-LY3 ABC-DLBCL cells was measured using a mesoscale assay. Inhibition of NFKB signaling by MALT1 or BTK inhibitors results in a decrease of IL6/10 secretion.
(§2) TMD8 or OCI-LY3 cells were propagated in RPMI-1640 (Sigma Aldrich) supplemented with 10% fetal bovine serum (HyClone), 1 mM sodium pyruvate (Invitrogen), 2 mM L-glutamine (Sigma Aldrich) and 1% PenStrep (Sigma Aldrich). Cell passage number should not exceed 30. Cells should be kept between 0.5-2.5 million cells per mL during culturing and cells should be supplemented every 2-3 days with fresh 50 μM beta-mercaptoenthanol. No beta-mercaptoethanol was used during the mesoscale assay.
(§3) For the Mesoscale assay, 100,000 TMD8 or OCI-LY3 cells were seeded per well into black-colored 96-well plates with clear bottom (Corning #3904) and test compounds were added in 9 dilution steps (1:2) ranging from 15 μM to 58.6 nM (final DMSO concentration 0.3%). DMSO control wells were used to determine the maximum signal (High Control (HC)). Treatment with the BTK inhibitor RN486 in a dose range from 30 nM to 131 pM (9 dilutions of 1:2) served as a positive control for NFKB pathway inhibition and was used to determine the maximum inhibition (Low Control (LC)). Compounds and cells were incubated for 24 h at 37° C. and 5% CO2 (assay volume is 150 μL). After 24 h of incubation 50 μL of the supernatant was transferred to a MSD plate (V-Plex Proinflammation Panel 1 (human) kit, Mesoscale (MSD)) and incubated for 2 h with vigorous shaking (600 rpm) at room temperature. Following incubation, plates were washed 3× with PBS+0.05% Tween-20 and 25 μL detection antibody solution (IL6 & IL10 antibodies in diluent 3 (MSD)) was added per well followed by 2 h of incubation with vigorous shaking (600 rpm) at room temperature. After 3× washes with PBS+0.05% Tween-20, plates were incubated with 150 μL 2× Read Buffer T and read on SECTOR imager.

[3] = system: IL10 secretion by OCI-LY3 ABC-DLBCL cells; experiment: Human IL10 Mesoscale assay (OCI-LY3); assay type: cell-based; conditions: 24 h
Description: as §1, §2, §3

Sequence of full-length MALT1 protein (Strep-MALT1(1-824)-His) (Q9UDY8 whole entry): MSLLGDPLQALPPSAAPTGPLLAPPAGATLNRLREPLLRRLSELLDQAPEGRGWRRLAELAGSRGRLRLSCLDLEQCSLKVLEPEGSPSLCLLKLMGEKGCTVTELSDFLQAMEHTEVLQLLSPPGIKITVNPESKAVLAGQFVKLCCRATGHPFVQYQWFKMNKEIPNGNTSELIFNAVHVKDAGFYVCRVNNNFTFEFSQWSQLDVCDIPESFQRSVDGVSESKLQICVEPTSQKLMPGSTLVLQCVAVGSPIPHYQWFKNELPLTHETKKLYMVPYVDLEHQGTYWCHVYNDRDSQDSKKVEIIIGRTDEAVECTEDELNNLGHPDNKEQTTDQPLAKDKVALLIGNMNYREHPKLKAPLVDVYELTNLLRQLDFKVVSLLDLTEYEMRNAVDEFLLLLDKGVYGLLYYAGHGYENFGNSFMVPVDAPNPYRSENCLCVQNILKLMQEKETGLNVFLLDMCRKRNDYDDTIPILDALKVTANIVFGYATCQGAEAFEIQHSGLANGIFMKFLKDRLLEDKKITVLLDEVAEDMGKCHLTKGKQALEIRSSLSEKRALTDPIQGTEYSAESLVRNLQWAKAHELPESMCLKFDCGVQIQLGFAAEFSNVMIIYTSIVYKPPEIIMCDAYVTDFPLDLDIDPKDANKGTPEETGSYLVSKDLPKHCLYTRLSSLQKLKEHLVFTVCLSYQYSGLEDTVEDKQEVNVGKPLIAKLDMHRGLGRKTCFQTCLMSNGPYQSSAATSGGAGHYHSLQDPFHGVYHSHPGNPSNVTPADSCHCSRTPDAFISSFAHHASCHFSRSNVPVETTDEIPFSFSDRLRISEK

Row | Compound | IC50 [1] | IC50 ([2]; Homo sapiens) | IC50 ([3]; Homo sapiens) | IC50 [2] | IC50 [3]
1 | N#Cc1cc(NC(=O)c2cnn(-c3ncnc4scnc34)c2C(F)(F)F)cnc1-n1nccn1 [Cpd 294, N-(5-cyano-6-(2H-1,2,3-triazol-2-yl)pyridin-3-yl)-1-(thiazolo[5,4-d]pyrimidin-7-yl)-5-(trifluoromethyl)-1H-pyrazole-4-carboxamide] | 0.076 µM | 1.58 µM | 0.871 µM |  | 
2 | CNc1ncc(-n2ncc(C(=O)Nc3cnc(-n4nccn4)c(C#N)c3)c2C(F)(F)F)c2cccc(F)c12 [Cpd 325, N-(5-cyano-6-(2H-1,2,3-triazol-2-yl)pyridin-3-yl)-1-(8-fluoro-1-(methylamino)isoquinolin-4-yl)-5-(trifluoromethyl)-1H-pyrazole-4-carboxamide] | 0.055 µM | 0.646 µM | 0.794 µM |  | 
3 | O=C(Nc1cnc(-n2ccnn2)c(Br)c1)c1cnn(-c2cccc3ncccc23)c1C(F)(F)F [Cpd 287, N-(5-bromo-6-(1H-1,2,3-triazol-1-yl)pyridin-3-yl)-1-(quinolin-5-yl)-5-(trifluoromethyl)-1H-pyrazole-4-carboxamide] | 0.095 µM | 0.229 µM | 0.234 µM |  | 
4 | N#Cc1cc(NC(=O)c2cnn(-c3ccnc4cn[nH]c34)c2C(F)(F)F)cnc1-n1nccn1 [Cpd 262, N-(5-cyano-6-(2H-1,2,3-triazol-2-yl)pyridin-3-yl)-1-(1H-pyrazolo[4,3-b]pyridin-7-yl)-5-(trifluoromethyl)-1H-pyrazole-4-carboxamide] | 0.191 µM | 0.182 µM | 0.129 µM |  | 
5 | N#Cc1cc(NC(=O)c2cnn(-c3cccc4nc(N)sc34)c2C(F)(F)F)cnc1-n1nccn1 [Cpd 282, 1-(2-aminobenzo[d]thiazol-7-yl)-N-(5-cyano-6-(2H-1,2,3-triazol-2-yl)pyridin-3-yl)-5-(trifluoromethyl)-1H-pyrazole-4-carboxamide] | 0.123 µM | 0.741 µM | 0.417 µM |  | 
6 | Cc1nc2cccc(-n3ncc(C(=O)Nc4cnc(-n5nccn5)c(C#N)c4)c3C(F)(F)F)n2n1 [Cpd 254, N-(5-cyano-6-(2H-1,2,3-triazol-2-yl)pyridin-3-yl)-1-(2-methyl-[1,2,4]triazolo[1,5-a]pyridin-5-yl)-5-(trifluoromethyl)-1H-pyrazole-4-carboxamide] | 0.282 µM | 0.081 µM | 0.079 µM |  | 
7 | N#Cc1cc(NC(=O)c2cnn(-c3cccc4c(=O)[nH]ccc34)c2C(F)(F)F)ccn1 [Cpd 356, N-(2-cyanopyridin-4-yl)-1-(1-oxo-1,2-dihydroisoquinolin-5-yl)-5-(trifluoromethyl)-1H-pyrazole-4-carboxamide] | 0.123 µM | 0.295 µM | 0.209 µM |  | 
8 | CNC(=O)c1ncc(-n2ncc(C(=O)Nc3cnc(-n4nccn4)c(Cl)c3)c2C(F)(F)F)c2ccccc12 [Cpd 390, 4-(4-((5-chloro-6-(2H-1,2,3-triazol-2-yl)pyridin-3-yl)carbamoyl)-5-(trifluoromethyl)-1H-pyrazol-1-yl)-N-methylisoquinoline-1-carboxamide] | 0.102 µM | 0.098 µM | 0.083 µM |  | 
9 | N-(5-cyano-6-(2H-1,2,3-triazol-2-yl)pyridin-3-yl)-1-(imidazo[1,2-a]pyrazin-5-yl)-3-(trifluoromethyl)-1H-pyrazole-4-carboxamide [Cpd 275] | 0.138 µM |  |  | 0.24 µM | 0.234 µM

More lines, in order of falling IC50 [1], values ahead:

Row | IC50 [1] | IC50 ([2]; Homo sapiens) | IC50 ([3]; Homo sapiens) | Compound | IC50 [2] | IC50 [3]
10 | 8.91 µM | 0.107 µM | 0.089 µM | O=C(Nc1cnc(-n2nccn2)c(Cl)c1)c1cnn(-c2cnc(C3CCCO3)c3cccc(C4CCCO4)c23)c1C(F)(F)F (stereo not drawn) [Cpd 366, 1-(1,5-bis(tetrahydrofuran-2-yl)isoquinolin-4-yl)-N-(5-chloro-6-(2H-1,2,3-triazol-2-yl)pyridin-3-yl)-5-(trifluoromethyl)-1H-pyrazole-4-carboxamide] |  | 
11 | 0.417 µM | 0.186 µM | 0.251 µM | Cc1cc(NC(=O)c2cnn(-c3cnc(N)c4ccccc34)c2C(F)(F)F)c(C)nc1-n1nccn1 [Cpd 334, 1-(1-aminoisoquinolin-4-yl)-N-(2,5-dimethyl-6-(2H-1,2,3-triazol-2-yl)pyridin-3-yl)-5-(trifluoromethyl)-1H-pyrazole-4-carboxamide] |  | 
12 | 0.417 µM | 0.048 µM | 0.044 µM | N#Cc1cc(NC(=O)c2cnn(-c3cccc4nc(N)ccc34)c2C(F)(F)F)cnc1-n1nccn1 [Cpd 332, 1-(2-aminoquinolin-5-yl)-N-(5-cyano-6-(2H-1,2,3-triazol-2-yl)pyridin-3-yl)-5-(trifluoromethyl)-1H-pyrazole-4-carboxamide] |  | 
13 | 0.275 µM | 0.457 µM | 0.224 µM | N#Cc1cncc(NC(=O)c2cnn(-c3cccc4c(=O)[nH]ccc34)c2C(F)(F)F)c1 [Cpd 346, N-(5-cyanopyridin-3-yl)-1-(1-oxo-1,2-dihydroisoquinolin-5-yl)-5-(trifluoromethyl)-1H-pyrazole-4-carboxamide] |  | 
14 | 0.195 µM | 0.1 µM | 0.068 µM | Cc1ncc(NC(=O)c2cnn(-c3cccc4c(=O)[nH]ccc34)c2C(F)(F)F)cc1C(F)(F)F [Cpd 348, N-(6-methyl-5-(trifluoromethyl)pyridin-3-yl)-1-(1-oxo-1,2-dihydroisoquinolin-5-yl)-5-(trifluoromethyl)-1H-pyrazole-4-carboxamide] |  | 
15 | 0.158 µM | 0.186 µM | 0.178 µM | Cn1nc(-n2ncc(C(=O)Nc3cnc(-n4nccn4)c(C#N)c3)c2C(F)(F)F)c2ccccc21 [Cpd 266, N-(5-cyano-6-(2H-1,2,3-triazol-2-yl)pyridin-3-yl)-1-(1-methyl-1H-indazol-3-yl)-5-(trifluoromethyl)-1H-pyrazole-4-carboxamide] |  | 
16 | 0.105 µM | 0.537 µM | 0.309 µM | Nc1cnn(-c2ncc(NC(=O)c3cnn(-c4cccc5scnc45)c3C(F)(F)F)cc2Cl)n1 [Cpd 299, N-(6-(4-amino-2H-1,2,3-triazol-2-yl)-5-chloropyridin-3-yl)-1-(benzo[d]thiazol-4-yl)-5-(trifluoromethyl)-1H-pyrazole-4-carboxamide] |  | 
17 | 0.087 µM | 0.072 µM | 0.04 µM | CC(O)c1cc(-n2ncc(C(=O)Nc3cnc(-n4nccn4)c(Cl)c3)c2C(F)(F)F)c2ccccc2n1 (stereo not drawn) [Cpd 374, N-(5-chloro-6-(2H-1,2,3-triazol-2-yl)pyridin-3-yl)-1-(2-(1-hydroxyethyl)quinolin-4-yl)-5-(trifluoromethyl)-1H-pyrazole-4-carboxamide] |  | 
18 | 0.079 µM | 0.186 µM | 0.093 µM | C[C@H](O)c1nccc2c(-n3ncc(C(=O)Nc4cnc(-n5nccn5)c(Cl)c4)c3C(F)(F)F)cccc12 (single isomer, unassigned) [Cpd 445, (*S)—N-(5-chloro-6-(2H-1,2,3-triazol-2-yl)pyridin-3-yl)-1-(1-(1-hydroxyethyl)isoquinolin-5-yl)-5-(trifluoromethyl)-1H-pyrazole-4-carboxamide] |  | 
19 | 0.068 µM | 0.078 µM | 0.046 µM | CN(C)C(=O)c1ncc(NC(=O)c2cnn(-c3cccc4c(=O)[nH]ccc34)c2C(F)(F)F)cc1Cl [Cpd 351, 3-chloro-N,N-dimethyl-5-(1-(1-oxo-1,2-dihydroisoquinolin-5-yl)-5-(trifluoromethyl)-1H-pyrazole-4-carboxamido)picolinamide] |  | 
20 | 0.044 µM | 0.129 µM | 0.087 µM | CNC(=O)c1ncc(NC(=O)c2cnn(-c3cccc4c(=O)[nH]ccc34)c2C(F)(F)F)cc1Cl [Cpd 352, 3-chloro-N-methyl-5-(1-(1-oxo-1,2-dihydroisoquinolin-5-yl)-5-(trifluoromethyl)-1H-pyrazole-4-carboxamido)picolinamide] |  | 
21 | 0.019 µM | 0.123 µM | 0.126 µM | Cc1nc(-n2nccn2)c(Cl)cc1NC(=O)c1cnn(-c2cc(=O)[nH]c3ccccc23)c1C(F)(F)F [Cpd 358, N-(5-chloro-2-methyl-6-(2H-1,2,3-triazol-2-yl)pyridin-3-yl)-1-(2-oxo-1,2-dihydroquinolin-4-yl)-5-(trifluoromethyl)-1H-pyrazole-4-carboxamide] |  | 
